# Where a name gives a salt, the structure may show the parent alone.
# Key:
# [1] = Effect of additives on stability at 60° C. (HPLC); assay type: physicochemical; conditions: for Rate Constant: zero-order
# Text: (§1) The drug is monitored at a detection wavelength of 232 nm.
# The additives in this study are selected from five groups of injectable excipients namely, tonicity modifiers (NaCl and d-mannitol), metal chelators (EDTA), antioxidants (sodium metabisulfite), complexing agents (α-cyclodextrin and niacinamide) and solvents (glycerol and polypropylene glycol). A tonicity modifier is required for adjusting the phentolamine mesylate solution to isotonic. […] Complexing agents were applied in the hope that a possible formation of an inclusion complex (by α-cyclodextrin) or stacking complex (by niacinamide) with phentolamine would modify the rate of hydrolytic degradation of the drug substance. Solvents were added to reduce the dielectric constant of the vehicle and were intended to slow the rate of degradation due to solvent polarity.
# The pH value of the solutions was readjusted to pH 3.5, as required.
# The 25% glycerol (25 g in 100 ml total volume with water) and 25% polypropylene glycol (25 g in 100 ml total volume with water) solutions had their buffer strength adjusted by addition of acetic acid followed by addition of 2 N NaOH for pH adjustment to pH 3.5 followed by addition of the drug to 0.1 mg/ml.
# All samples were placed in 10 ml glass serum vials, stoppered with rubber closures with an inert coating (Daikyo Flurotec by WEST Pharmaceutical), and sealed with flip-top caps after sampling. Vials were placed at 60° C. after the weights were recorded.
# Sampling occurred at the initial time point and on days 2, 7, and 14. Vials were weighed, sampled, sealed, re-weighed, and replaced under the selected storage condition until testing at the subsequent time point. Records indicate no significant weight loss during storage.
# [2] = Narrow-range pH-stability profiling at 60° C. (HPLC); assay type: physicochemical; conditions: 50 mM sodium phosphate, zero-order rate constant vs pH
# Method: as §1
# All samples were stored in the dark. […] All samples were analyzed without dilution.
# The phosphate buffers were prepared as previously described. […] Measurement of sample pH was done after HPLC analysis.
# In order to precisely define the most favorable pH, a stronger stressing condition was needed to generate a greater extent of degradation in the lower pH region. For this study, the incubation condition was shifted from 40° C. to 60° C. […] Since the extent of degradation after fourteen (14) days was still less than twenty percent (20%) in most samples, zero-order rate kinetics was used for the degradation curves (concentration versus time). The calculated rate constant was plotted against pH to provide the narrow-range pH-stability profile.
# [3] = EDTA 0.7 mg/ml, sodium acetate pH 3.5, 60° C., Day 14
# [4] = Glycerol 25% w/v, sodium acetate pH 3.5, 60° C., Day 7
# [5] = NaCl 50 mg/ml, sodium acetate pH 3.5, 60° C., Day 0
# [6] = NaCl 50 mg/ml, sodium acetate pH 3.5, 60° C., Day 2
# [7] = NaCl 50 mg/ml, sodium acetate pH 3.5, 60° C., Day 7
# [8] = NaCl 50 mg/ml, sodium acetate pH 3.5, 60° C., Day 14
# [9] = Niacinamide 50 mg/ml, sodium acetate pH 3.5, 60° C., Day 0
# [10] = Niacinamide 50 mg/ml, sodium acetate pH 3.5, 60° C., Day 2
# [11] = Niacinamide 50 mg/ml, sodium acetate pH 3.5, 60° C., Day 7
# [12] = Niacinamide 50 mg/ml, sodium acetate pH 3.5, 60° C., Day 14
# [13] = No additive, pH 3.5, 60° C., Day 0
# [14] = No additive, pH 3.5, 60° C., Day 2
# [15] = No additive, pH 3.5, 60° C., Day 7
# [16] = No additive, pH 3.5, 60° C., Day 14
# [17] = Sodium metabisulfite 0.5 mg/ml, sodium acetate pH 3.5, 60° C., Day 0
# [18] = Sodium metabisulfite 0.5 mg/ml, sodium acetate pH 3.5, 60° C., Day 7
# [19] = Sodium metabisulfite 0.5 mg/ml, sodium acetate pH 3.5, 60° C., Day 14
# [20] = d-Mannitol 40 mg/ml, sodium acetate pH 3.5, 60° C., Day 0
# [21] = d-Mannitol 40 mg/ml, sodium acetate pH 3.5, 60° C., Day 2
# [22] = d-Mannitol 40 mg/ml, sodium acetate pH 3.5, 60° C., Day 7
# [23] = d-Mannitol 40 mg/ml, sodium acetate pH 3.5, 60° C., Day 14
smiles,measurement,setting,value
"Cc1ccc(N(CC2=NCCN2)c2cccc(O)c2)cc1 [Phentolamine Mesylate, phentolamine mesylate]",Phentolamine Purity,"[1]; EDTA 0.7 mg/ml, sodium acetate pH 3.5, 60° C., Day 0",99 % Peak Area
same,Phentolamine Purity,"[1]; EDTA 0.7 mg/ml, sodium acetate pH 3.5, 60° C., Day 2",99 % Peak Area
same,Phentolamine Purity,"[1]; EDTA 0.7 mg/ml, sodium acetate pH 3.5, 60° C., Day 7",99 % Peak Area
same,Phentolamine Concentration,[1]; [3],99 µg/mL
same,Phentolamine Purity,[1]; [3],98 % Peak Area
same,Phentolamine Purity,"[1]; Glycerol 25% w/v, sodium acetate pH 3.5, 60° C., Day 0",98 % Peak Area
same,Phentolamine Purity,"[1]; Glycerol 25% w/v, sodium acetate pH 3.5, 60° C., Day 2",98 % Peak Area
same,Phentolamine Concentration,[1]; [4],120 µg/mL
same,Phentolamine Purity,[1]; [4],93 % Peak Area
same,Phentolamine Purity,"[1]; Glycerol 25% w/v, sodium acetate pH 3.5, 60° C., Day 14",94 % Peak Area
same,Phentolamine Concentration,[1]; [5],94 µg/mL
same,Phentolamine Purity,[1]; [5],94 % Peak Area
same,Phentolamine Concentration,[1]; [6],98 µg/mL
same,Phentolamine Purity,[1]; [6],99 % Peak Area
same,Phentolamine Concentration,[1]; [7],80 µg/mL
same,Phentolamine Purity,[1]; [7],89 % Peak Area
same,Phentolamine Concentration,[1]; [8],74 µg/mL
same,Phentolamine Purity,[1]; [8],85 % Peak Area
same,Phentolamine Concentration,[1]; [9],90 µg/mL
same,Phentolamine Purity,[1]; [9],99 % Peak Area
same,Phentolamine Concentration,[1]; [10],90 µg/mL
same,Phentolamine Purity,[1]; [10],100 % Peak Area
same,Phentolamine Concentration,[1]; [11],78 µg/mL
same,Phentolamine Purity,[1]; [11],93 % Peak Area
same,Phentolamine Concentration,[1]; [12],92 µg/mL
same,Phentolamine Purity,[1]; [12],90 % Peak Area
same,Phentolamine Concentration,[1]; [13],90 µg/mL
same,Phentolamine Purity,[1]; [13],99 % Peak Area
same,Phentolamine Concentration,[1]; [14],92 µg/mL
same,Phentolamine Purity,[1]; [14],98 % Peak Area
same,Phentolamine Concentration,[1]; [15],82 µg/mL
same,Phentolamine Purity,[1]; [15],98 % Peak Area
same,Phentolamine Concentration,[1]; [16],77 µg/mL
same,Phentolamine Purity,[1]; [16],97 % Peak Area
same,Phentolamine Purity,"[1]; Polypropylene glycol 25% w/v, sodium acetate pH 3.5, 60° C., Day 0",93 % Peak Area
same,Phentolamine Purity,"[1]; Polypropylene glycol 25% w/v, sodium acetate pH 3.5, 60° C., Day 2",97 % Peak Area
same,Phentolamine Purity,"[1]; Polypropylene glycol 25% w/v, sodium acetate pH 3.5, 60° C., Day 7",93 % Peak Area
same,Phentolamine Purity,"[1]; Polypropylene glycol 25% w/v, sodium acetate pH 3.5, 60° C., Day 14",90 % Peak Area
same,Phentolamine Concentration,[1]; [17],97 µg/mL
same,Phentolamine Purity,[1]; [17],97 % Peak Area
same,Phentolamine Purity,"[1]; Sodium metabisulfite 0.5 mg/ml, sodium acetate pH 3.5, 60° C., Day 2",99 % Peak Area
same,Phentolamine Concentration,[1]; [18],84 µg/mL
same,Phentolamine Purity,[1]; [18],95 % Peak Area
same,Phentolamine Concentration,[1]; [19],74 µg/mL
same,Phentolamine Purity,[1]; [19],92 % Peak Area
same,Phentolamine Concentration,[1]; [20],98 µg/mL
same,Phentolamine Purity,[1]; [20],96 % Peak Area
same,Phentolamine Concentration,[1]; [21],96 µg/mL
same,Phentolamine Purity,[1]; [21],97 % Peak Area
same,Phentolamine Concentration,[1]; [22],98 µg/mL
same,Phentolamine Purity,[1]; [22],96 % Peak Area
same,Phentolamine Concentration,[1]; [23],91 µg/mL
same,Phentolamine Purity,[1]; [23],97 % Peak Area
same,impact of additive on stability,"[1]; d-Mannitol and disodium EDTA, based on the rate constant, 60° C.",improve stability
same,impact of additive on recovery vs no-additive control,"[1]; sodium metabisulfite, NaCl, glycerol, polypropylene glycol and niacinamide, 60° C.",negative impact on the recovery
same,Rate Constant,"[1]; EDTA 0.7 mg/ml, sodium acetate pH 3.5, 60° C.",0.438 µg/mL/day
same,Rate Constant,"[1]; Glycerol 25% w/v, sodium acetate pH 3.5, 60° C.",0.726 µg/mL/day
same,Rate Constant,"[1]; NaCl 50 mg/ml, sodium acetate pH 3.5, 60° C.",1.663 µg/mL/day
same,Rate Constant,"[1]; Niacinamide 50 mg/ml, sodium acetate pH 3.5, 60° C.",-0.026 µg/mL/day
same,Rate Constant,"[1]; No additive, pH 3.5, 60° C.",1.027 µg/mL/day
same,Rate Constant,"[1]; Polypropylene glycol 25% w/v, sodium acetate pH 3.5, 60° C.",1.019 µg/mL/day
same,Rate Constant,"[1]; Sodium metabisulfite 0.5 mg/ml, sodium acetate pH 3.5, 60° C.",1.903 µg/mL/day
same,Rate Constant,"[1]; d-Mannitol 40 mg/ml, sodium acetate pH 3.5, 60° C.",0.416 µg/mL/day
same,Rate Constant,"[1]; α-Cyclodextrin 50 mg/ml, sodium acetate pH 3.5, 60° C.",0.501 µg/mL/day
same,Phentolamine Purity,"[1]; α-Cyclodextran 50 mg/ml, sodium acetate pH 3.5, 60° C., Day 0",98 % Peak Area
same,Phentolamine Purity,"[1]; α-Cyclodextran 50 mg/ml, sodium acetate pH 3.5, 60° C., Day 2",99 % Peak Area
same,Phentolamine Purity,"[1]; α-Cyclodextran 50 mg/ml, sodium acetate pH 3.5, 60° C., Day 7",98 % Peak Area
same,Phentolamine Purity,"[1]; α-Cyclodextran 50 mg/ml, sodium acetate pH 3.5, 60° C., Day 14",98 % Peak Area
same,Phentolamine Concentration,"[1]; α-Cyclodextrin 50 mg/ml, sodium acetate pH 3.5, 60° C., Day 2",99 µg/mL
same,Phentolamine Concentration,"[1]; α-Cyclodextrin 50 mg/ml, sodium acetate pH 3.5, 60° C., Day 7",96 µg/mL
same,Phentolamine Concentration,"[1]; α-Cyclodextrin 50 mg/ml, sodium acetate pH 3.5, 60° C., Day 14",94 µg/mL
same,impact of additive on stability,"[1]; α-cyclodextrin, based on purity value, 60° C.",negligible
same,pH at which most stable,[2],3.5

# Source: US7229630B2, “Stabilized formulations of alpha adrenergic receptor antagonists and the uses thereof” (Novalar Pharmaceuticals, Inc., priority 2002, dated 2007)
